SMILES strings stand for the structures. Counter-ions that a name gives are not always drawn.

The test concerns MTT (mouse pheochromocytoma). In words: IC50 of cell viability (ATP content). Conditions: (24 or 48 h). The essentials: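 MTT mouse pheochromocytoma cells (5 µl of 200,000 cells/ml per well, white 1536-well plates, DMEM with 5% FBS and 1% horse serum) were cultured overnight at 37°C, 5% CO2. They then received 23 nl library compound in DMSO by pintool at 8 concentrations (final 0.5 nM to 46 µM) for 24 or 48 hrs. CellTiter-Glo ATP luminescence was read after 15 minutes. Signals were normalised to positive-control (100% inhibition) and DMSO (0%) wells, and IC50 came from a four-parameter logistic fit.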
In the case of `O=C1/C(=C2\Nc3ccc(S(=O)(=O)O)cc3C2=O)Nc2ccc(S(=O)(=O)O)cc21` [Indigo carmine], the “IC50 of cell viability” value was greater than 46 µM.
Then `[Cl][In]([Cl])[Cl]` [Indium trichloride], with greater than 46 µM.
On to `Cc1c(C)n(Cc2ccccc2)c2ccc(C(=O)OCCN(C)C)cc12` [Indocate], for which the “IC50 of cell viability” value was greater than 46 µM.
Take `OCc1c[nH]c2ccccc12` [Indole-3-carbinol]: the “IC50 of cell viability” value was greater than 46 µM.
As for `COc1ccc2c(c1)c(CC(=O)O)c(C)n2C(=O)c1ccc(Cl)cc1` [Indometacin], the figure is greater than 46 µM; as for `COC(=O)C(CN)c1c[nH]c2ccc(OC)cc12` (stereo unspecified) [Indorenate hydrochloride], greater than 46 µM; as for `CC(=O)N(C[C@@H](C)C(=O)O)c1c(I)cc(I)c(N)c1I` [Iocetamic acid], greater than 46 µM.
Consider `O=C(CCCCC(=O)Nc1c(I)cc(I)c(C(=O)O)c1I)Nc1c(I)cc(I)c(C(=O)O)c1I` [Iodipamide], for which the “IC50 of cell viability” value is greater than 46 µM.
`CC(=O)N(CC(O)CN(C(C)=O)c1c(I)c(C(=O)NC[C@@H](O)CO)c(I)c(C(=O)NC[C@@H](O)CO)c1I)c1c(I)c(C(=O)NC[C@@H](O)CO)c(I)c(C(=O)NC[C@@H](O)CO)c1I` [Iodixanol]: the “IC50 of cell viability” value is greater than 46 µM.
As for `Oc1c(I)cc(Cl)c2cccnc12` [Iodochlorohydroxyquinoline], the figure is greater than 46 µM; as for `IC(I)I` [Iodoform], greater than 46 µM.
Consider `CC(C)NC(C)Cc1ccc(I)cc1.Cl` (stereo unspecified) [Iofetamine hydrochloride], for which the “IC50 of cell viability” value was greater than 46 µM.
Then `CC(=O)N(CC(O)CO)c1c(I)c(C(=O)NCC(O)CO)c(I)c(C(=O)NCC(O)CO)c1I` (stereo unspecified) [Iohexol], with greater than 46 µM; and `CN(C(=O)CO)c1c(I)c(C(=O)NCC(O)CO)c(I)c(C(=O)NCC(O)CO)c1I` (stereo unspecified) [Iomeprol], with greater than 46 µM; and `C[C@H](O)C(=O)Nc1c(I)c(C(=O)NC(CO)CO)c(I)c(C(=O)NC(CO)CO)c1I` [Iopamidol], with greater than 46 µM.
`COCC(=O)Nc1c(I)c(C(=O)NC[C@@H](O)CO)c(I)c(C(=O)N(C)C[C@@H](O)CO)c1I` [Iopromide]: the “IC50 of cell viability” value is greater than 46 µM.
`O=C(NC[C@@H](O)CO)c1c(I)c(C(=O)NC[C@@H](O)CO)c(I)c(N(CCO)C(=O)CO)c1I` [Ioversol]: the “IC50 of cell viability” value is greater than 46 µM.
Then `CNC(=O)c1c(I)c(C(=O)NCC(=O)Nc2c(I)c(C(=O)O)c(I)c(C(=O)NCCO)c2I)c(I)c(N(C)C(C)=O)c1I` [Ioxaglic acid], with greater than 46 µM; and `CC(=O)N(CC(O)CO)c1c(I)c(C(=O)NCCO)c(I)c(C(=O)NCC(O)CO)c1I` (stereo unspecified) [Ioxilan], with greater than 46 µM.
Then `CC(C)[N+]1(C)[C@@H]2CC[C@H]1CC(OC(=O)C(CO)c1ccccc1)C2` (stereo partly specified) [Ipratropium bromide monohydrate], with greater than 46 µM; and `CC(C)Oc1ccc2c(=O)c(-c3ccccc3)coc2c1` [Ipriflavone], with greater than 46 µM; and `O=C1c2ccccc2[S+](=O)([O-])N1CCCCN1CCN(c2ncccn2)CC1` [Ipsapirone], with greater than 46 µM.
As for `O=C(O)CCCC/C=C(\c1ccccc1)c1cccnc1` [Isbogrel], the figure is greater than 46 µM; as for `CNC1C(O)C(OC2C(NC(=O)C(O)CN)CC(N)C(OC3OC(CN)C(O)C(O)C3O)C2O)OCC1(C)O` (stereo unspecified) [Isepamicin], greater than 46 µM; as for `CC(C)CCON=O` [Isoamyl nitrite], greater than 46 µM.
With `CC(C)COC(=O)c1ccc(N)cc1` [Isobutamben], the “IC50 of cell viability” value was greater than 46 µM.
In the case of `Cc1cc(C(=O)NNCc2ccccc2)no1` [Isocarboxazid], the “IC50 of cell viability” value is greater than 46 µM.
On to `Clc1ccc([C@H](Cn2ccnc2)OCc2c(Cl)cccc2Cl)c(Cl)c1` [Isoconazole], for which the “IC50 of cell viability” value was greater than 46 µM.
As for `CC[C@H](NC(C)C)[C@H](O)c1ccc(O)c(O)c1.C[S+](=O)([O-])O` [Isoetharine mesylate salt], the figure is greater than 46 µM; as for `C/C=C/c1ccc(O)c(OC)c1` [Isoeugenol], greater than 46 µM; as for `CC(=O)OCC(=O)[C@@]1(O)CC[C@@H]2[C@H]3CC\C4=C\C(=O)\C=C/[C@]4(C)[C@]3(F)[C@@H](O)C[C@@]12C` [Isoflupredone acetate], greater than 46 µM.

The values are drawn from the supplement of paper PMC3974653.
